Assay results published in ChEMBL document CHEMBL1133326, “Alpha-ketoamides, alpha-ketoesters and alpha-diketones as HCV NS3 protease inhibitors” (Bioorg Med Chem Lett, 2000).
*1 amine or outer side, *2 acyl side, *3 side chain or, on linkers, in order; H or OH if unused. Where a SMILES comes first, the peptide text is derived from it. [ ]: non-standard residue; d: D form. The star is where a group is joined. Abu(ψCOCO) = CC[C@H](N[*:1])C(=O)C(=O)[*:2]; Boc = CC(C)(C)OC(=O)*; OtBu = CC(C)(C)O*; NHAllyl = C=CCN*

Target: NS3 (Hepatitis C virus, UniProt A3EZJ3)
Assay: Inhibition against hepatitis C virus protease NS3 activity
Design: species or system Hepacivirus hominis

Chain of NS3 (A3EZJ3 whole entry): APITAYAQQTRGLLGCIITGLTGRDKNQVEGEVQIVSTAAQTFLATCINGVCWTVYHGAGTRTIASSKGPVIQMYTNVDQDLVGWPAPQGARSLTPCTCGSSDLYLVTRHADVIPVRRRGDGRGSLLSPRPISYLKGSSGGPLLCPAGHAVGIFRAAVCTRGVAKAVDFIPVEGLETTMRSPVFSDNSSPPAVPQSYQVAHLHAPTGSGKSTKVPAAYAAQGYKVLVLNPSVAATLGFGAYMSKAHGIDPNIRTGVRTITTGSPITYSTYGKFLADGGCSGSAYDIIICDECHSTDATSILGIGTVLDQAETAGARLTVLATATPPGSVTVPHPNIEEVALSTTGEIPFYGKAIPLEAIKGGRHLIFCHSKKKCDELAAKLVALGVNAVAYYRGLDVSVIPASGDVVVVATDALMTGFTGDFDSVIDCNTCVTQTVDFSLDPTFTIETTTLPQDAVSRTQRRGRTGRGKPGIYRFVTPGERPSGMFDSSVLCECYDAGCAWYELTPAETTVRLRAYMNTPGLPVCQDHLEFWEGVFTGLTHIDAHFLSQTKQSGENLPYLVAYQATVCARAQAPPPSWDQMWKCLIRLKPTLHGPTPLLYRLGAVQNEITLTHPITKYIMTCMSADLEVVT

IC50 [nM]	Molecule
350	C=CCC(NC(=O)[C@H]1CCCN1C(=O)[C@@H](NC(=O)[C@@H](NC(=O)[C@H](CCC(=O)O)NC(=O)[C@@H](N)CC(=O)O)C(C)C)C(C)C)C(=O)C(=O)NCC (stereo partly specified)
570	C=CCNC(=O)C(=O)C(CC=C)NC(=O)[C@H]1CCCN1C(=O)[C@@H](NC(=O)[C@@H](NC(=O)[C@H](CCC(=O)OC(C)(C)C)NC(=O)[C@H](CC(=O)OC(C)(C)C)NC(=O)OC(C)(C)C)C(C)C)C(C)C (stereo partly specified)
4340	C=CCC(NC(=O)[C@H]1CCCN1C(=O)[C@@H](NC(=O)[C@@H](NC(=O)[C@H](CCC(=O)O)NC(=O)[C@@H](N)CC(=O)O)C(C)C)C(C)C)C(=O)C(=O)OC (stereo partly specified)
> 30000	C=CCC(NC(=O)[C@H]1CCCN1C(=O)[C@@H](NC(=O)[C@@H](NC(=O)[C@H](CCC(=O)OC(C)(C)C)NC(=O)[C@H](CC(=O)OC(C)(C)C)NC(=O)OC(C)(C)C)C(C)C)C(C)C)C(=O)C(=O)CC(C)C (stereo partly specified)
4230	C=CCC(NC(=O)[C@H]1CCCN1C(=O)[C@@H](NC(=O)[C@@H](NC(=O)[C@H](CCC(=O)O)NC(=O)[C@@H](N)CC(=O)O)C(C)C)C(C)C)C(=O)C(=O)C1CC=CCC1 (stereo partly specified)
420	C=CCNC(=O)C(=O)[C@H](CC)NC(=O)[C@@H]1CCCN1C(=O)[C@@H](NC(=O)[C@@H](NC(=O)[C@H](CCC(=O)O)NC(=O)[C@@H](N)CC(=O)O)C(C)C)C(C)C (H-DEVVP[Abu(ψCOCO)]-NHAllyl)
> 30000	C=CCC(NC(=O)[C@H]1CCCN1C(=O)[C@@H](NC(=O)[C@@H](NC(=O)[C@H](CCC(=O)OC(C)(C)C)NC(=O)[C@H](CC(=O)OC(C)(C)C)NC(=O)OC(C)(C)C)C(C)C)C(C)C)C(=O)C(=O)OC (stereo partly specified)
840	C=CCNC(=O)C(=O)[C@H](CC)NC(=O)[C@@H]1CCCN1C(=O)[C@@H](NC(=O)[C@@H](NC(=O)[C@H](CCC(=O)OC(C)(C)C)NC(=O)[C@H](CC(=O)OC(C)(C)C)NC(=O)OC(C)(C)C)C(C)C)C(C)C (Boc-D(OtBu)E(OtBu)VVP[Abu(ψCOCO)]-NHAllyl)
340	C=CCNC(=O)C(=O)C(CC=C)NC(=O)[C@H]1CCCN1C(=O)[C@@H](NC(=O)[C@@H](NC(=O)[C@H](CCC(=O)O)NC(=O)[C@@H](N)CC(=O)O)C(C)C)C(C)C (stereo partly specified)
4800	C=CCC(NC(=O)[C@H]1CCCN1C(=O)[C@@H](NC(=O)[C@@H](NC(=O)[C@H](CCC(=O)O)NC(=O)[C@@H](N)CC(=O)O)C(C)C)C(C)C)C(=O)C(=O)CC(C)C (stereo partly specified)
2500	Ac-DEVVPC-OH
